“Also recorded” adds a separate entry of the source. Structures can show the parent of a compound that is named as a salt.
Experiments:
[1] = tested on: dermal fibroblasts; test: Activation of dermal fibroblasts (α-SMA and pro-Col I expression) by HaCaT condition medium; format: cell-based, human; details: for activation of fibroblasts: PGE2 receptor blockade in condition medium from HaCaT with increased water loss
Procedure: FIGS. 3A-C. ENaC senses sodium concentration changes in keratinocytes and regulates downstream genes. Stratified HaCaT and fibroblast were co-cultured in transwell plates and subjected to increased water loss and control conditions for 16 hours. Expression of α-SMA and pro-Col I was detected in dermal fibroblasts (HDF) with their specific antibodies and visualized with fluorescence labeled secondary antibodies, Nuclei were stained with DAPI. (FIG. 3A, Panels A-D) Stratified HaCaT and fibroblasts in control condition. (FIG. 3A, Panels E-H) Stratified HaCaT and fibroblasts in increased water loss condition. (FIG. 3A, Panels I-L) Stratified ENaC knockdown HaCaT and fibroblasts in control condition. (FIG. 3A, Panels M-P) Stratified ENaC knockdown HaCaT and fibroblasts in increased water loss condition. (FIGS. 3B-C) The quantification of expression levels of α-SMA and pro-Col I by ImageJ. The scale bar represents 100 μm. *p<0.05, **p<0.01.
FIGS. 4A-C. Show results from Example 1 where it was determine that PGE2 is important for the activation of fibroblasts by keratinocytes. As described in Example 1, condition medium of stratified wild type (or ENaC knockdown) HaCaT culture under increased water loss was collected and supplemented to fibroblasts for 24 hours. Expression of α-SMA and pro-collagen I in dermal fibroblasts was tested as described in
FIG. 3. (FIG. 4A, Panels A-D) Wild type HaCaT condition medium (CM). (FIG. 4A, Panels E-H) ENaC-knockdown HaCaT condition medium. (FIG. 4A, Panels I-L) ENaC-knockdown HaCaT condition medium plus 10 μM of PGE2. (FIGS. 4B-C) Quantification of expression levels of α-SMA (FIG. 4B) and pro-Col I (FIG. 4C) was performed by ImageJ. The scale bar represents 100 μm. **p<0.01.
Since the PGE2 is a downstream product of COX-2 and found to be involved in regulation of fibroblast cytoskeletal dynamics during airway epithelium injury (37), it was hypothesized that PGE2 signaling is important for keratinocyte-fibroblast signaling. […]

[2] = tested on: rabbit ear hypertrophic scar; test: Hypertrophic scar model in the rabbit ear (scar elevation index); format: in vivo; details: for scar elevation index (SEI): topical, harvested POD28
Procedure: As described in Example 1, full thickness 7 mm excision wounds were made on the ventral side of the rabbit ears at PODO. Amiloride (an ENaC inhibitor) or Celecoxib (a COX-2 inhibitor) was applied to the wounds every other day for a total of three times starting at POD14. Wounds harvested at POD28 and histological analysis was performed. (A-D) Representative pictures of wound histology at POD28. Rabbit ear wounds with Amiloride treatment (B) and control (A) and with Celecoxib treatment (D) and its control (C) are shown. (E) The scar elevation index (SEI) was calculated and used to evaluate the scar formation. (F. G) SEI. Twelve wounds for each dose of treatment and 12 controls were used for the analysis. *P<0.05. Scar bar stands for 1000 μm. **p<0.01. […] The present invention is not limited by such a mechanism and an understanding of the mechanism is not necessary to practice the present invention.
Sustained activation of dermal fibroblasts with accumulation of collagen is the main cause of hypertrophic scars (38, 39). […] The role of the ENaC-COX-2 pathway was investigated in vivo utilizing a well validated hypertrophic scar model in the rabbit ear (31, 40-43). Amiloride, an ENaC antagonist, was topically applied to the rabbit ear wounds after re-epithelialization was complete. Control scars, located on the contralateral ear, were treated with vehicle alone. In this model, absence of scar elevation gives a scar elevation index (SEI) of 1.0, and control wounds heal with an elevated scar (SEI >1). […] This reduction in scarring exceeds other therapies in validated model of hypertrophic scarring (14, 44, 45). In an identically designed experiment, Celecoxib, a COX-2 inhibitor, was applied on rabbit ear wounds to evaluate its effect on formation of hypertrophic scars. Similarly, treatment of 2 mg/wound of Celecoxib on rabbit ear wounds reduced the hypertrophy of the scar from 1.53±0.10 to 1.23±0.07 (FIG. 5C, D, and G).

[3] = tested on: stratified keratinocytes (HaCaT); test: Sodium flux by scanning ion-selective electrode technique (SIET) in stratified keratinocyte culture with increased water loss; format: cell-based, human; set-up: dose or concentration left out as unconfirmed; details: amiloride
Procedure: As described in Example 1, HESCs or stratified keratinocytes (HaCaT) were cultured for 16 hours in the indicated conditions and ion fluxes were measured immediately after the samples were submerged in the bathing buffer. Sodium flux in HESCs culture with increased water loss (A) or increased media sodium concentration (10% more than control) (B). Sodium flux in stratified keratinocytes culture with increased water loss (C) or sodium concentration (D). Calcium (E) or chloride (F) flux in stratified keratinocytes culture with increased water loss. (G) Sodium flux in amiloride treated stratified keratinocytes culture with increased water loss. […] Background readings were obtained more than 1000 μm away from the sample. *p<0.05, **p<0.01.
Increased trans-epidermal water loss results in higher sodium flux. To estimate the change of sodium flux of skin, the sodium flux was measured in human ex vivo skin culture (HESC), which retains important elements of in vivo skin and recapitulates the features of human wound repair (25, 26). […] To validate increased TEWL, expression levels of aquaporin 3 (AQP3) were measured, which has been reported as a molecular marker to indicate the hydration conditions of skin (27, 28). […]
Changes in sodium flux were evaluated using a scanning ion-selective electrode technique (SIET). […]

[4] = tested on: COX-2; test: COX-2 mRNA expression by RT-qPCR in human foreskin keratinocytes (HK) culture; format: cell-based; details: HKs with calcium channel blocked
Procedure: FIGS. 2A-F. Regulation of COX-2 and PGE2 by sodium flux is mediated by ENaC. FIGS. A and B show mRNA expression analysis of COX-2 as described in Example 1. (A) COX-2 mRNA expression in HESCs. HESCs were cultured with increased water loss condition for 4 or 16 hours (n=4). Total RNAs were isolated and RT-qPCR was performed. Gene expression was normalized according to the expression level of GAPDH. The level of COX-2 expression in HESCs treated with increased water loss was compared to that in control cells, which was set at 100% as expression level. (B) COX-2 mRNA expression keratinocytes culture. Stratified wild type or ENaC-knockdown HaCaT cells were cultured with increased water loss or sodium concentration condition for 16 hours (n=4). (C) PGE2 protein expression. Monolayer wild type or ENaC-knockdown HaCaT cells were cultured with increased sodium concentration condition for 16 hours (n=4). The amount of PGE2 in culture medium was measured by ELISA. (D) Western blot analysis (n=4). […] After 10, 30, 60, 240 minutes treatment, samples were harvested and western blot was performed with antibodies against phosphorylated-Akt, and Akt. β-actin was detected as a loading control. […] Cox-2 mRNA (E) and PGE2 (F) protein expression were analyzed by RT-qPCR and ELISA. *p<0.05, **p<0.01. […]

[5] = tested on: IL-8; test: Expression of IL-8 in keratinocytes incubated with trypsin; format: cell-based, human; details: for up-regulation of IL-8: high concentration of sodium stimulation
Source text: (§1) FIGS. 9A-I. Prss8 is an important protein downstream of Nax. […] As a primary function, Prss8 can activate ENaC by cleaving its a subunit. The cleaved and non-cleaved bands can be visualized by an ENaC specific protein with western blotting (H). […] However, the cleavage of the ENaC a subunit was enhance by trypsin in Nax knockdown keratinocytes (H and I). FIG. 10. The keratinocytes differentiation with or without knockdown of Nax. Keratinocytes can be differentiated in differentiation medium to form a multiple cell layer structure like skin epidermis (Panel A). […] Knockdown of Nax inhibited the keratinocyte differentiation (Panel B) with the absence of K10 marker in the cell (Panel E). […] The expression of differentiation markers are similar to the differentiated wild type keratinocytes.
(§2) To further confirm the pathway of Nax-Prss8-ENaC, a Prss8 homolog, trypsin was used to activate the ENaC with the knockdown of Nax.

[6] = tested on: IL-1β; test: Expression of IL-1β in keratinocytes incubated with trypsin; format: cell-based, human; details: for up-regulation of IL-1β: high concentration of sodium stimulation
Source text: as §1, §2

[7] = tested on: keratinocytes; test: Keratinocyte differentiation in differentiation medium (K14/K10 markers); format: cell-based, human; details: Nax knockdown keratinocytes, daily incubation with differentiation medium containing 10 ug/ml trypsin
Source text: as §1, §2

[8] = tested on: COX-2; test: Expression of COX-2 in keratinocytes incubated with trypsin; format: cell-based, human; details: for up-regulation of COX-2: high concentration of sodium stimulation
[9] = tested on: ENaC a subunit; test: Cleavage of the ENaC α subunit by western blotting in keratinocytes; format: cell-based, human; details: Nax knockdown keratinocytes
Source text: as §1

[10] = wild type keratinocytes, 10 μg/ml trypsin

CC(C)Oc1ccc2c(=O)c3cc(C(=O)O)ccc3oc2c1 [AH6809]
activation of fibroblasts [1]: reduced activation of fibroblasts to control levels

CCCCCC(O)CCC1CCC(=O)N1CCCCCCC(=O)O (centres unmarked) [CAY10580]
activation of fibroblasts [1]: reduced activation of fibroblasts to control levels

Cc1ccc(-c2cc(C(F)(F)F)nn2-c2ccc(S(N)(=O)=O)cc2)cc1 [Celecoxib]
scar elevation index (SEI) ([2]; rabbit ear wounds, 2 mg/wound): 1.23±0.07

CCCCC[C@H](O)/C=C/[C@H]1[C@H](O)CC(=O)[C@@H]1C/C=C\CCCC(=O)O [PGE2, prostaglandin E2]
activation of fibroblasts (α-SMA and pro-Col I) ([1]; 10 μM PGE2 added to ENaC knockdown HaCaT culture conditioned medium, 24 hours): successfully rescued

N=C(N)NC(=O)c1nc(Cl)c(N)nc1N [amiloride]
scar formation / hypertrophy of rabbit ear scar (in words) ([2]; rabbit ear scar treatment, 28 days post wounding): clearly showed the improvement of the scar formation
reduction of scar formation compared to control wound healing groups ([2]; rabbit ear wounds, lower concentrations): did not show significant reduction
scar elevation index (SEI) ([2]; rabbit ear wounds, 0.5 mg/wound): 1.06±0.05
enhanced sodium flux due to increased water loss [3]: completely abolished

COC(=O)C1=C(C)NC(C)=C(C(=O)OC2CCCN(Cc3ccccc3)C2)C1c1cccc([N+](=O)[O-])c1 (centres unmarked) [benidipine hydrochloride]
increased expression levels of COX-2 during increased water loss or sodium concentration [4]: not abolished

trypsin
up-regulation of IL-8 ([5]; ENaC knockdown keratinocytes): recovered the up-regulation
up-regulation of IL-8 ([5]; Nax knockdown keratinocytes): recovered the up-regulation; also recorded: up-regulated
expression of IL-8 [5, 10]: significantly increased
up-regulation of IL-1β ([6]; ENaC knockdown keratinocytes): recovered the up-regulation
up-regulation of IL-1β ([6]; Nax knockdown keratinocytes): recovered the up-regulation; also recorded: up-regulated
expression of IL-1β [6, 10]: significantly increased
differentiation of keratinocytes [7]: re-established the differentiation; also recorded: successfully recovered the differentiation
up-regulation of COX-2 ([8]; ENaC knockdown keratinocytes): but not in ENaC knockdown cells
up-regulation of COX-2 ([8]; Nax knockdown keratinocytes): recovered the up-regulation; also recorded: up-regulated
expression of COX-2 [8, 10]: significantly increased
cleavage of the ENaC a subunit [9]: enhance

From US20210009682A1, “REDUCING CUTANEOUS SCAR FORMATION AND TREATING SKIN CONDITIONS” (Northwestern University, priority 2013, published 2021)
